Assays:
Assay in all cases: KinomeScan
Format in all cases: binding
Conditions in all cases: 1 μM
[1] = biological target: T1, ACVR2A (Homo sapiens, UniProt P27037)
T1 construct: purchased DiscoverX (KINOMEscan)
Method: (§1) Assays were performed essentially as described previously. For most assays, kinase-tagged T7 phage strains were grown in parallel in 24-well blocks in an E. coli host derived from the BL21 strain. E. coli were grown to log-phase and infected with T7 phage from a frozen stock (multiplicity of infection ~0.1) and incubated with shaking at 32 °C until lysis (~90 min). The lysates were centrifuged (6000× g) and filtered (0.2 μm) to remove cell debris. The remaining kinases were produced in HEK-293 cells and subsequently tagged with DNA for qPCR detection. […] The liganded beads were blocked with excess biotin and washed with blocking buffer (SeaBlock (Pierce, ThermoFisher Scientific, Illkirch, France), 1% BSA, 0.05% Tween 20, 1 mM DTT) to remove unbound ligand and to reduce non-specific phage binding. […] An 11-point threefold serial dilution of each test compound was prepared in 100% DMSO at 100× final test concentration which and subsequently diluted to 1× in the assay. All reactions were performed in polystyrene 96-well plates in a final volume of 0.135 mL. […] The kinase concentration in the eluates was measured by qPCR.

[2] = biological target: T2, ALK (Homo sapiens, UniProt Q9UM73)
T2 construct: purchased DiscoverX (KINOMEscan)
Method: as §1

[3] = biological target: T3, ASK1 (Homo sapiens, UniProt Q99683)
T3 construct: purchased DiscoverX (KINOMEscan)
Method: as §1

[4] = biological target: T4, ASK2 (Homo sapiens, UniProt O95382)
T4 construct: purchased DiscoverX (KINOMEscan)
Method: as §1

[5] = biological target: T5, AURKB (Homo sapiens, UniProt Q96GD4)
T5 construct: purchased DiscoverX (KINOMEscan)
Method: as §1

[6] = biological target: T6, BIKE (Homo sapiens, UniProt Q9NSY1)
T6 construct: purchased DiscoverX (KINOMEscan)
Method: as §1

[7] = biological target: T7, CDC2L1 (Homo sapiens, UniProt P21127)
T7 construct: purchased DiscoverX (KINOMEscan)
Method: as §1

[8] = biological target: T8, CDK11 (Homo sapiens, UniProt Q9BWU1)
T8 construct: purchased DiscoverX (KINOMEscan)
Method: as §1

[9] = biological target: T9, CHEK1 (Homo sapiens, UniProt O14757)
T9 construct: purchased DiscoverX (KINOMEscan)
Method: as §1

[10] = biological target: T10, DAPK2 (Homo sapiens, UniProt Q9UIK4)
T10 construct: purchased DiscoverX (KINOMEscan)
Method: as §1

[11] = biological target: T11, DCAMKL1 (Homo sapiens, UniProt O15075)
T11 construct: purchased DiscoverX (KINOMEscan)
Method: as §1

[12] = biological target: T12, DDR2 (Homo sapiens, UniProt Q16832)
T12 construct: purchased DiscoverX (KINOMEscan)
Method: as §1

[13] = biological target: T13, DRAK2 (Homo sapiens, UniProt O94768)
T13 construct: purchased DiscoverX (KINOMEscan)
Method: as §1

[14] = biological target: T14, EGFR(L747-S752del, P753S) (Homo sapiens, UniProt P00533, DEL747-752/P753S)
T14 construct: purchased DiscoverX (KINOMEscan)
Method: as §1

[15] = biological target: T15, EGFR(L858R,T790M) (Homo sapiens, UniProt P00533, L858R/T790M)
T15 construct: purchased DiscoverX (KINOMEscan)
Method: as §1

[16] = biological target: T16, EPHA8 (Homo sapiens, UniProt P29322)
T16 construct: purchased DiscoverX (KINOMEscan)
Method: as §1

[17] = biological target: T17, ERK1 (Homo sapiens, UniProt P27361)
T17 construct: purchased DiscoverX (KINOMEscan)
Method: as §1

[18] = biological target: T18, FGFR3(G697C) (Homo sapiens, UniProt P22607, G697C)
T18 construct: purchased DiscoverX (KINOMEscan)
Method: as §1

[19] = biological target: T19, FRK (Homo sapiens, UniProt P42685)
T19 construct: purchased DiscoverX (KINOMEscan)
Method: as §1

[20] = biological target: T20, IKK-epsilon (Homo sapiens, UniProt Q14164)
T20 construct: purchased DiscoverX (KINOMEscan)
Method: as §1

[21] = biological target: T21, LIMK2 (Homo sapiens, UniProt P53671)
T21 construct: purchased DiscoverX (KINOMEscan)
Method: as §1

[22] = biological target: T22, MAP3K3 (Homo sapiens, UniProt Q99759)
T22 construct: purchased DiscoverX (KINOMEscan)
Method: as §1

[23] = biological target: T23, MAP3K4 (Homo sapiens, UniProt Q9Y6R4)
T23 construct: purchased DiscoverX (KINOMEscan)
Method: as §1

[24] = biological target: T24, MAST1 (Homo sapiens, UniProt Q9Y2H9)
T24 construct: purchased DiscoverX (KINOMEscan)
Method: as §1

[25] = biological target: T25, MEK2 (Homo sapiens, UniProt P36507)
T25 construct: purchased DiscoverX (KINOMEscan)
Method: as §1

[26] = biological target: T26, MLCK (Homo sapiens, UniProt Q32MK0)
T26 construct: purchased DiscoverX (KINOMEscan)
Method: as §1

[27] = biological target: T27, MUSK (Homo sapiens, UniProt O15146)
T27 construct: purchased DiscoverX (KINOMEscan)
Method: as §1

[28] = biological target: T28, NEK7 (Homo sapiens, UniProt Q8TDX7)
T28 construct: purchased DiscoverX (KINOMEscan)
Method: as §1

[29] = biological target: T29, PIM2 (Homo sapiens, UniProt Q9P1W9)
T29 construct: purchased DiscoveRx (KinomeScan, San Diego, CA, USA)
Method: as §1

[30] = biological target: T30, RPS6KA4 (Kin.Dom.2-C-terminal) (Homo sapiens, UniProt O75676)
T30 construct: Kin.Dom.2-C-terminal; purchased DiscoveRx (KinomeScan, San Diego, CA, USA)
Method: as §1

[31] = biological target: T31, STK39 (Homo sapiens, UniProt Q9UEW8)
T31 construct: purchased DiscoverX (KINOMEscan)
Method: as §1

[32] = biological target: T32, TAOK1 (Homo sapiens, UniProt Q7L7X3)
T32 construct: purchased DiscoverX (KINOMEscan)
Method: as §1

[33] = biological target: T33, TYK2(JH2domain-pseudokinase) (Homo sapiens, UniProt P29597)
T33 construct: TYK2(JH2domain-pseudokinase); purchased DiscoverX (KINOMEscan)
Method: as §1

[34] = biological target: T34, ULK3 (Homo sapiens, UniProt Q6PHR2)
T34 construct: purchased DiscoverX (KINOMEscan)
Method: as §1

[35] = biological target: T35, YSK4 (Homo sapiens, UniProt Q56UN5)
T35 construct: purchased DiscoverX (KINOMEscan)
Method: as §1

[36] = biological target: T36, ZAK (Homo sapiens, UniProt Q9NYL2)
T36 construct: purchased DiscoverX (KINOMEscan)
Method: as §1

T35 sequence (Q56UN5 whole entry): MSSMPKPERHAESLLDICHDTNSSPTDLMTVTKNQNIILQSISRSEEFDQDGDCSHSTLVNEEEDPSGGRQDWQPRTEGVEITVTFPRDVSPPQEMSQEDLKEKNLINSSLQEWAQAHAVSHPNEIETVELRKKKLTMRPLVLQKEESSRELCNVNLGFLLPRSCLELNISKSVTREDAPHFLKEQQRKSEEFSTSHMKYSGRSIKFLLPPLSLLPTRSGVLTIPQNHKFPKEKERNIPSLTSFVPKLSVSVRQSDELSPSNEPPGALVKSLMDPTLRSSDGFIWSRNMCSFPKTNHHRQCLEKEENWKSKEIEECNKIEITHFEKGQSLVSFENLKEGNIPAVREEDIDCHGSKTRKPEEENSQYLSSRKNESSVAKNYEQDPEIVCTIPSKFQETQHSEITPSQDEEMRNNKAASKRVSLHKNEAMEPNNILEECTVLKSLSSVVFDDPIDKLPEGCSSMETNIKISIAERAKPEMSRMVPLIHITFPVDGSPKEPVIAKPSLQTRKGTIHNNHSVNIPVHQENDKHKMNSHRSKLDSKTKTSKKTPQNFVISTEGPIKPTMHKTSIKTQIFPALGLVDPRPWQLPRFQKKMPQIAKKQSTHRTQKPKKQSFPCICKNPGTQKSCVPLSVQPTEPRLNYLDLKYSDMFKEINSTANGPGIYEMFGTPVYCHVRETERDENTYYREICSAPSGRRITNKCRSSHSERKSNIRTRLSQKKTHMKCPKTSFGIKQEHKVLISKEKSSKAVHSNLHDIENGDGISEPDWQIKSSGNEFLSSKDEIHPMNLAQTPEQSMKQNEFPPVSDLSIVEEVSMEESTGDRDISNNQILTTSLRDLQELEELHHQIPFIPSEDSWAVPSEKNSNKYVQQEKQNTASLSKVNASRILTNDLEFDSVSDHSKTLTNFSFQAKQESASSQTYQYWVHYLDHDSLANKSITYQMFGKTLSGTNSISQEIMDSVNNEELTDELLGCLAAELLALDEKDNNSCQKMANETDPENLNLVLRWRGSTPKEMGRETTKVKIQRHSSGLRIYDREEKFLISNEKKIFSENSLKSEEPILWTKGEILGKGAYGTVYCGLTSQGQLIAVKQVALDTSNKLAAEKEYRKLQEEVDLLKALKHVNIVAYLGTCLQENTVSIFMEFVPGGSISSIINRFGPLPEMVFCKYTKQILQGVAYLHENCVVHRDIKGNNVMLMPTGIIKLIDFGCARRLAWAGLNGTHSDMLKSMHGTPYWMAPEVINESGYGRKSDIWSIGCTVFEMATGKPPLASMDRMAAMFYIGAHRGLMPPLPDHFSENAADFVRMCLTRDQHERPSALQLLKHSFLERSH
T4 sequence (O95382 whole entry): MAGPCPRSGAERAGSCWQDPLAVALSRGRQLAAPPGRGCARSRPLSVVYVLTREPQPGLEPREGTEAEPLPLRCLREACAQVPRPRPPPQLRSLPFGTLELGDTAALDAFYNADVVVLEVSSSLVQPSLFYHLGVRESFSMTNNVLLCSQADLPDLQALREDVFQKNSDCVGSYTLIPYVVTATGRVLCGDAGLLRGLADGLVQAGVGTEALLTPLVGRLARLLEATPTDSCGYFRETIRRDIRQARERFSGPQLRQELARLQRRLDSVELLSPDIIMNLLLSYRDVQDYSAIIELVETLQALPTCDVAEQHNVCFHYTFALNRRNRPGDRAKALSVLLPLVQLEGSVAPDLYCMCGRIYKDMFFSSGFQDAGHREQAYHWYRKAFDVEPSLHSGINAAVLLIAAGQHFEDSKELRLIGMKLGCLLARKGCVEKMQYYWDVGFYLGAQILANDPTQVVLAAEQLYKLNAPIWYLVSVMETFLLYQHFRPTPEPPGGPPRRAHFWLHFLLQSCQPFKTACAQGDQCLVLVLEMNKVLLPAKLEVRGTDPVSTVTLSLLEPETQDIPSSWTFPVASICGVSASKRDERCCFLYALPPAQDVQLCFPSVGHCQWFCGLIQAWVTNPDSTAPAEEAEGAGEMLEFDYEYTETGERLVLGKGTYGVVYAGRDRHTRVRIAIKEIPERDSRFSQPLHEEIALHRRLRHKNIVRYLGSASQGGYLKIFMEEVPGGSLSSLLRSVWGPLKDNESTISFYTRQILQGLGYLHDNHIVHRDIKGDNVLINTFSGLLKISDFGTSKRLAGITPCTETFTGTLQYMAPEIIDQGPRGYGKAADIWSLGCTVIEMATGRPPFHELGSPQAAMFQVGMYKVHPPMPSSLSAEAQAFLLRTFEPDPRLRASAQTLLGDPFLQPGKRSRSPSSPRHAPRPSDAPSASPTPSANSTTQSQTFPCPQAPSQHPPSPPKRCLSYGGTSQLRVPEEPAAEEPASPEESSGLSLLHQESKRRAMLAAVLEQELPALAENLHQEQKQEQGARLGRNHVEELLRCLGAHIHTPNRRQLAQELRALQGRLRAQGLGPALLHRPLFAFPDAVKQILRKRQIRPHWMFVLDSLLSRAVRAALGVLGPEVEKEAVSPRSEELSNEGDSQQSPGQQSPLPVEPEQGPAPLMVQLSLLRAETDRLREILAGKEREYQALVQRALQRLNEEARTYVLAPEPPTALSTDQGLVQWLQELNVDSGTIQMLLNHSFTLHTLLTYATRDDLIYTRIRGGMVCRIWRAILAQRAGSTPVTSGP
T18 sequence (P22607 23-806 G697C): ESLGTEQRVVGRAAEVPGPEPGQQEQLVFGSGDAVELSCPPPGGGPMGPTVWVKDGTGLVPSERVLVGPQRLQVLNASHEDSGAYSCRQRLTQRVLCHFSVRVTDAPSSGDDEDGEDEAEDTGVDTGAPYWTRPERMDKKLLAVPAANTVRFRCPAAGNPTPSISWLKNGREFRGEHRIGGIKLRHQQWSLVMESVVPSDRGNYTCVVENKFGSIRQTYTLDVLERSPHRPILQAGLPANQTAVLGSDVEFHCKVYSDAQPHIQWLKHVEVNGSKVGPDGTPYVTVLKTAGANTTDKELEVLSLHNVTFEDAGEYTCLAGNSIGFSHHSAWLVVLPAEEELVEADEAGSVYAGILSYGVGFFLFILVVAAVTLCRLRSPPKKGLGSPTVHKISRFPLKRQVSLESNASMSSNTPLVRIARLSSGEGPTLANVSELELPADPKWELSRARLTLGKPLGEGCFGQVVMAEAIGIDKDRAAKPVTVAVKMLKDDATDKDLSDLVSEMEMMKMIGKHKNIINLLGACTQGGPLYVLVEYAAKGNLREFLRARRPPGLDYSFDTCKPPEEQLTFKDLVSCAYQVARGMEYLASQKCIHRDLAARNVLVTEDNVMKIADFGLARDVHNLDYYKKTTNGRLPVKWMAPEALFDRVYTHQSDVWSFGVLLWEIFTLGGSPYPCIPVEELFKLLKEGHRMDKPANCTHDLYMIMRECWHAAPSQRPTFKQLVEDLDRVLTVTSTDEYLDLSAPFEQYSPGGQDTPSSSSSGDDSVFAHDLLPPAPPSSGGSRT
T11 sequence (O15075 whole entry): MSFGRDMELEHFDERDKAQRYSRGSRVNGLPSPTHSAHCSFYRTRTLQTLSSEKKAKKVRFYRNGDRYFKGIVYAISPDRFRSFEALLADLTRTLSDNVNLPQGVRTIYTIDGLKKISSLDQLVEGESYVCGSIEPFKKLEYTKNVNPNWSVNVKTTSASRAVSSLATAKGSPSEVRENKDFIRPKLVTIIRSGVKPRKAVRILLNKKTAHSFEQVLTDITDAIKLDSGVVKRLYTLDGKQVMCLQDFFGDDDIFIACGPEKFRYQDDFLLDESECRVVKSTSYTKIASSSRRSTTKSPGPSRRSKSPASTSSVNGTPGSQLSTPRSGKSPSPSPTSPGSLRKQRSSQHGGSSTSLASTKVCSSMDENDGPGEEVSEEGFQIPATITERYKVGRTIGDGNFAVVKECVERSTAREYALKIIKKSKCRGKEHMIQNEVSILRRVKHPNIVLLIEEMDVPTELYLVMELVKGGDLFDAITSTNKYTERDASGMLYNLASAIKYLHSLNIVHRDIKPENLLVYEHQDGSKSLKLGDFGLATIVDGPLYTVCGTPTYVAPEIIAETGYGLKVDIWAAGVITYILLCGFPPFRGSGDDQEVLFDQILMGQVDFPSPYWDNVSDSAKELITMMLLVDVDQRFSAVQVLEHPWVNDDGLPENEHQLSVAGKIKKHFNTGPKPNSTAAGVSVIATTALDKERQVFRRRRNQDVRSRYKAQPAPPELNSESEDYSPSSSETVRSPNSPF
T27 sequence (O15146 24-869): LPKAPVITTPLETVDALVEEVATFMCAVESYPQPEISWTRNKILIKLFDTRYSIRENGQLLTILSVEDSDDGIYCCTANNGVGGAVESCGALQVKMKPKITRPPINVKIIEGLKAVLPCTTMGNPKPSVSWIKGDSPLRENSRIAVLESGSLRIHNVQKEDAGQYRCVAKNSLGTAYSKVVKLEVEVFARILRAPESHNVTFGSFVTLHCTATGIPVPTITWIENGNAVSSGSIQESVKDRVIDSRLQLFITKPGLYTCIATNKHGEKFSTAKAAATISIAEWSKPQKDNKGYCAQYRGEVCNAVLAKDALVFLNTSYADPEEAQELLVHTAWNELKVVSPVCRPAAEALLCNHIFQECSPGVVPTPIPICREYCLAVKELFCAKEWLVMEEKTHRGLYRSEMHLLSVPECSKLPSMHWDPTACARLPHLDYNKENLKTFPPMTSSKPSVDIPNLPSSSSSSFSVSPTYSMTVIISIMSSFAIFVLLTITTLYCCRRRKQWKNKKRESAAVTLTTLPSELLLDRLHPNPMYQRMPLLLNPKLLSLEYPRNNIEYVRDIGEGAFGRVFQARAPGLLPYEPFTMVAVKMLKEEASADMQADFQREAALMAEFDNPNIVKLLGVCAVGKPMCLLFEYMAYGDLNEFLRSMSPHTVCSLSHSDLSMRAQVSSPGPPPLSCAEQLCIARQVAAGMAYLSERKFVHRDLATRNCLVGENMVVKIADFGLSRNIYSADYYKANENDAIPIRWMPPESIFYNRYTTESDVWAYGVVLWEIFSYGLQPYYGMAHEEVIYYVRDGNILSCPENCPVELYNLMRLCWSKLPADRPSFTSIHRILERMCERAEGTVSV

Question: With `COc1cc(/C=C2\N=C(N)NC2=O)ccc1O` [Polyandrocarpamine A] as the compound, how does the Score [1] read?
Answer: 100

Question: What about the Score [2] of the same compound?
Answer: 100

Question: What about the Score [3] of the same compound?
Answer: 100

Question: And the Score [4]?
Answer: 100

Question: And the Score [5]?
Answer: 100

Question: And the Score [6]?
Answer: 70

Question: And the Score [7]?
Answer: 100

Question: And the Score [8]?
Answer: 100

Question: And the Score [9]?
Answer: 100

Question: And the Score [10]?
Answer: 58

Question: And the Score [11]?
Answer: 98

Question: And the Score [12]?
Answer: 69

Question: What about the Score [13] of the same compound?
Answer: 51

Question: And the Score [14]?
Answer: 100

Question: And the Score [15]?
Answer: 100

Question: What about the Score [16] of the same compound?
Answer: 100

Question: And the Score [17]?
Answer: 100

Question: What about the Score [18] of the same compound?
Answer: 83

Question: And the Score [19]?
Answer: 100

Question: What about the Score [20] of the same compound?
Answer: 89

Question: What about the Score [21] of the same compound?
Answer: 96

Question: And the Score [22]?
Answer: 100

Question: And the Score [23]?
Answer: 100

Question: And the Score [24]?
Answer: 100

Question: What about the Score [25] of the same compound?
Answer: 100

Question: What about the Score [26] of the same compound?
Answer: 100

Question: What about the Score [27] of the same compound?
Answer: 56

Question: What about the Score [28] of the same compound?
Answer: 100

Question: What about the Score [29] of the same compound?
Answer: 21

Question: What about the Score [30] of the same compound?
Answer: 22

Question: And the Score [31]?
Answer: 100

Question: What about the Score [32] of the same compound?
Answer: 76

Question: And the Score [33]?
Answer: 100

Question: And the Score [34]?
Answer: 100

Question: What about the Score [35] of the same compound?
Answer: 100

Question: What about the Score [36] of the same compound?
Answer: 95

— article PMC5666424, “Marine-Derived 2-Aminoimidazolone Alkaloids. Leucettamine B-Related Polyandrocarpamines Inhibit Mammalian and Protozoan DYRK & CLK Kinases” (Marine Drugs, 2017)
